This experiment has as its target T1, human mPGES-1 (Homo sapiens, UniProt O14684).
T1 sequence (O14684 1-152): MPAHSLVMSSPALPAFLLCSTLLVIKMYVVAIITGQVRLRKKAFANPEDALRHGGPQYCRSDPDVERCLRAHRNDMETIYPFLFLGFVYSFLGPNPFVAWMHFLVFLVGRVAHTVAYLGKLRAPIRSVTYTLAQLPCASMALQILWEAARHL
Kind of experiment: Microsomal prostaglandin E synthase biochemical assay. As to conditions: microsome preparation containing human mPGES-1; PGH2 10.8 μM, GSH 2.5 mM, pH 6.8; PGE2 quantified by HTRF; average of at least n=2. How it is done: Compounds were tested as inhibitors of microsomal prostaglandin E synthase activity in microsomal prostaglandin E synthase assays and whole cell assays. These assays measure prostaglandin E2 (PGE2) synthesis which is taken as a measure of prostaglandin E synthase activity. Microsomal prostaglandin E synthase biochemical assays used microsomal prostaglandin E synthase-1 in microsomal preparations. The source of the microsomes can be for example interleukin-1β-stimulated human A549 cells (which express human mPGES-1) or Sf9 cells transfected with plasmids encoding human mPGES-1 cDNA.
A solution of test compound was added to a diluted microsome preparation containing human mPGES-1 and pre-incubated for 15 minutes in potassium phosphate buffer pH 6.8 with cofactor glutathione (GSH). Corresponding solutions without test compound were used as positive controls, and corresponding solutions without test compound and without microsomes were used as negative controls. The enzymatic reaction was then started by addition of the substrate PGH2 in an organic solution (dry acetonitrile).
The reaction was stopped after one minute by adding an acidic solution (pH 1.9) of ferric chloride and citrate (final concentrations 7 mM and 47 mM respectively), by which the PGH2 was sequestered (the PGH2 is reduced to mainly 12-hydroxy heptadecatrineoic acid (12-HHT) which is not detected by the subsequent PGE2 detection step). The resulting solution was then pH neutralized by addition of potassium phosphate buffer, prior to diluting an aliquot of the resulting solution in a weak potassium phosphate buffer (50 mM, pH 6.8) containing 0.2% BSA (w/v). […] The PGE2 formed was quantified by use of a commercial HTRF based kit (catalogue #62PG2PEC or #62P2APEC from Cisbio International). 100% activity was defined as the PGE2 production in positive controls subtracted by the PGE2 production in the negative controls. IC50 values were then determined using standard procedures.
(In TR-FRET formats the signal depends on donor and acceptor labels being close together.)

Structures are written as SMILES.

`COCC#Cc1ccc(C(=O)NS(=O)(=O)c2ccccc2S(N)(=O)=O)cc1` [Example 53, 4-(3-Methoxyprop-1-ynyl)-N-(2-sulfamoylphenylsulfonyl)benzamide]: the IC50 (usually the concentration needed to halve the response being measured) worked out at 1600 nM.
Consider `C=C(C)C#Cc1ccc(C(=O)NS(=O)(=O)c2ccccc2S(N)(=O)=O)cc1` [Example 54, 4-(3-Methylbut-3-en-1-ynyl)-N-(2-sulfamoylphenylsulfonyl)benzamide], for which it took 62 nM to reach half-maximal inhibition (IC50).
Turning to `NS(=O)(=O)c1ccccc1S(=O)(=O)NC(=O)c1ccc(C#Cc2ccccc2)nc1` [Example 55, 6-(Phenylethynyl)-N-(2-sulfamoylphenylsulfonyl)nicotinamide], the IC50 turned out to be 120 nM.
In the case of `CCC(O)(C#Cc1ccc(C(=O)NS(=O)(=O)c2ccccc2S(N)(=O)=O)cc1)CC` [Example 56, 4-(3-Ethyl-3-hydroxypent-1-ynyl)-N-(2-sulfamoylphenylsulfonyl)benzamide], the IC50 came out at 2300 nM.
For `CCC(C)(O)C#Cc1ccc(C(=O)NS(=O)(=O)c2ccccc2S(N)(=O)=O)cc1` (centres unmarked) [Example 57, 4-(3-Hydroxy-3-methylpent-1-ynyl)-N-(2-sulfamoylphenylsulfonyl)benzamide], it took 8800 nM to reach half-maximal inhibition (IC50).
The figure for `NS(=O)(=O)c1ccccc1S(=O)(=O)NC(=O)c1ccc(C#CC2(O)CCCC2)cc1` [Example 58, 4-((1-Hydroxycyclopentyl)ethynyl)-N-(2-sulfamoylphenylsulfonyl)benzamide] is 1900 nM; for `CC(C)(O)C#Cc1cccc(C(=O)NS(=O)(=O)c2ccccc2S(N)(=O)=O)c1` [Example 59, 3-(3-Hydroxy-3-methylbut-1-ynyl)-N-(2-sulfamoylphenylsulfonyl)benzamide] it is 56 nM; for `CC(C)(C)C#Cc1cccc(C(=O)NS(=O)(=O)c2ccccc2S(N)(=O)=O)c1` [Example 60, 3-(3,3-Dimethylbut-1-ynyl)-N-(2-sulfamoylphenylsulfonyl)benzamide] it is 270 nM.
`CC(C)(C)C#Cc1ccc(C(=O)NS(=O)(=O)c2ccccc2S(N)(=O)=O)c2ccccc12` [Example 61, 4-(3,3-Dimethylbut-1-ynyl)-N-(2-sulfamoylphenylsulfonyl)-1-naphthamide] had an IC50 of 99 nM.
The same measure for `NS(=O)(=O)c1ccccc1S(=O)(=O)NC(=O)c1ccc(-c2cc3ccccc3o2)c2ccccc12` [Example 62, 4-(Benzofuran-2-yl)-N-(2-sulfamoylphenylsulfonyl)-1-naphthamide]: 20 nM; for `Cc1nc(-c2cc3ccccc3o2)sc1C(=O)NS(=O)(=O)c1ccccc1S(N)(=O)=O` [Example 63, 2-(Benzofuran-2-yl)-4-methyl-N-(2-sulfamoylphenylsulfonyl)thiazole-5-carboxamide]: 96 nM.
Compound `CC(C)(O)C#Cc1cccc(-c2ccccc2C(=O)NS(=O)(=O)c2ccccc2S(N)(=O)=O)c1` [Example 64, 3′-(3-Hydroxy-3-methylbut-1-ynyl)-N-(2-sulfamoylphenylsulfonyl)biphenyl-2-carboxamide] came in with an IC50 of 6200 nM.
The same measure for `NS(=O)(=O)c1ccccc1S(=O)(=O)NC(=O)c1ccc(C#CC2CCCC2)cc1` [Example 65, 4-(Cyclopentylethynyl)-N-(2-sulfamoylphenylsulfonyl)benzamide]: 14 nM.
The figure for `NS(=O)(=O)c1ccccc1S(=O)(=O)NC(=O)c1cccc(C#CC2CCCC2)c1` [Example 66, 3-(Cyclopentylethynyl)-N-(2-sulfamoylphenylsulfonyl)benzamide] is 220 nM.
`Cc1cc(C#CC2CCCC2)ccc1C(=O)NS(=O)(=O)c1ccccc1S(N)(=O)=O` [Example 67, 4-(Cyclopentylethynyl)-2-methyl-N-(2-sulfamoylphenylsulfonyl)benzamide]: inhibition was half-maximal at 85 nM (IC50).
The same measure for `COc1c(C#CC(C)(C)C)ccc(C(=O)NS(=O)(=O)c2ccccc2S(N)(=O)=O)c1C` [Example 68, 4-(3,3-Dimethylbut-1-ynyl)-3-methoxy-2-methyl-N-(2-sulfamoylphenylsulfonyl)-benzamide]: 2000 nM.
With `COc1c(-c2cc3ccccc3o2)ccc(C(=O)NS(=O)(=O)c2ccccc2S(N)(=O)=O)c1C` [Example 69, 4-(Benzofuran-2-yl)-3-methoxy-2-methyl-N-(2-sulfamoylphenylsulfonyl)benzamide], the midpoint of inhibition, the IC50, lay at 79 nM.
The same measure for `NS(=O)(=O)c1ccccc1S(=O)(=O)NC(=O)c1ccc(C#Cc2cccnc2)cc1` [Example 70, 4-(Pyridin-3-ylethynyl)-N-(2-sulfamoylphenylsulfonyl)benzamide]: 320 nM.
For `NS(=O)(=O)c1ccccc1S(=O)(=O)NC(=O)c1ccc(C#Cc2ccccn2)cc1` [Example 71, 4-(Pyridin-2-ylethynyl)-N-(2-sulfamoylphenylsulfonyl)benzamide], it took 1000 nM to reach half-maximal inhibition (IC50).
The same measure for `NS(=O)(=O)c1ccccc1S(=O)(=O)NC(=O)c1ccc(C#Cc2ccccc2)cc1` [Example 72, 4-(Phenylethynyl)-N-(2-sulfamoylphenylsulfonyl)benzamide]: 10 nM; for `CC(C)(C)C#Cc1ccc(C(=O)NS(=O)(=O)c2ccccc2S(N)(=O)=O)cc1F` [Example 73, 4-(3,3-Dimethylbut-1-ynyl)-3-fluoro-N-(2-sulfamoylphenylsulfonyl)benzamide]: 60 nM; for `COc1cccc(-c2cc3cc(C(=O)NS(=O)(=O)c4ccccc4S(N)(=O)=O)ccc3o2)c1` [Example 74, 2-(3-Methoxyphenyl)-N-(2-sulfamoylphenylsulfonyl)benzofuran-5-carboxamide]: 24 nM.
As to `COc1ccc(-c2cc3cc(C(=O)NS(=O)(=O)c4ccccc4S(N)(=O)=O)ccc3o2)cc1` [Example 75, 2-(4-Methoxyphenyl)-N-(2-sulfamoylphenylsulfonyl)benzofuran-5-carboxamide], the IC50 stood at 29 nM.
Take `CC(C)(C)c1cc2cc(C(=O)NS(=O)(=O)c3ccccc3S(N)(=O)=O)ccc2o1` [Example 76, 2-tert-Butyl-N-(2-sulfamoylphenylsulfonyl)benzofuran-5-carboxamide]: the IC50 amounted to 110 nM.
In the case of `NS(=O)(=O)c1ccccc1S(=O)(=O)NC(=O)c1ccc2oc(C3(O)CCCC3)cc2c1` [Example 77, 2-(1-Hydroxycyclopentyl)-N-(2-sulfamoylphenylsulfonyl)benzofuran-5-carboxamide], the IC50 stood at 720 nM.
The same measure for `NS(=O)(=O)c1ccccc1S(=O)(=O)NC(=O)c1ccc2oc(C3CCCC3)cc2c1` [Example 78, 2-Cyclopentyl-N-(2-sulfamoylphenylsulfonyl)benzofuran-5-carboxamide]: 5700 nM.
The figure for `CC(C)(C)C#Cc1ccc(C(=O)NS(=O)(=O)c2ccccc2S(N)(=O)=O)cc1C#N` [Example 79, 3-Cyano-4-(3,3-dimethylbut-1-ynyl)-N-(2-sulfamoylphenylsulfonyl)benzamide] is 70 nM; for `N#Cc1cc(C(=O)NS(=O)(=O)c2ccccc2S(N)(=O)=O)ccc1-c1cc2ccccc2o1` [Example 80, 4-(Benzofuran-2-yl)-3-cyano-N-(2-sulfamoylphenylsulfonyl)benzamide] it is 130 nM; for `NS(=O)(=O)c1ccccc1S(=O)(=O)NC(=O)c1ccc(Cl)cc1O` [Example 81, 4-Chloro-2-hydroxy-N-(2-sulfamoylphenylsulfonyl)benzamide] it is 1000 nM.
Regarding `NS(=O)(=O)c1ccccc1S(=O)(=O)NC(=O)c1ccc(Br)cc1O` [Example 82, 4-Bromo-2-hydroxy-N-(2-sulfamoylphenylsulfonyl)benzamide], the IC50 was found to be 540 nM.
In the case of `NS(=O)(=O)c1ccccc1S(=O)(=O)NC(=O)c1ccc(-c2cc3ccccc3o2)cc1F` [Example 83, 4-(Benzofuran-2-yl)-2-fluoro-N-(2-sulfamoylphenylsulfonyl)benzamide], 42 nM corresponded to half-maximal inhibition (IC50).
For the compound `CC(C)(C)C#Cc1ccc(C(=O)NS(=O)(=O)c2ccccc2S(N)(=O)=O)c(F)c1` [Example 84, 4-(3,3-Dimethylbut-1-ynyl)-2-fluoro-N-(2-sulfamoylphenylsulfonyl)benzamide], the IC50 worked out at 170 nM.
The same measure for `NS(=O)(=O)c1ccccc1S(=O)(=O)NC(=O)c1ccc(C#CC2CCCC2)cc1F` [Example 85, 4-(Cyclopentylethynyl)-2-fluoro-N-(2-sulfamoylphenylsulfonyl)benzamide]: 49 nM.
The figure for `COc1c(C#CC2CCCC2)ccc(C(=O)NS(=O)(=O)c2ccccc2S(N)(=O)=O)c1F` [Example 86, 4-(Cyclopentylethynyl)-2-fluoro-3-methoxy-N-(2-sulfamoylphenylsulfonyl)benzamide] is 71 nM; for `COc1c(-c2cc3ccccc3o2)ccc(C(=O)NS(=O)(=O)c2ccccc2S(N)(=O)=O)c1F` [Example 87, 4-(Benzofuran-2-yl)-2-fluoro-3-methoxy-N-(2-sulfamoylphenylsulfonyl)benzamide] it is 16 nM.
